Reference: ChEMBL document CHEMBL1201862, “PubChem BioAssay data set” (2004)
Calls of active or inactive are those of the source.

Experiments:
[1] = Luminescence Cell-Based Dose Retest to Confirm Inhibitors of Cancer Stem Cells. [Related pubchem assays (depositor defined):AID2717, AID2721]; format: functional; settings: Homo sapiens
[2] = viability loss of HMLE_sh_eGFP cells – cell-based, luminescence, counter-screen for HMLE_sh_ECad selective toxicity project, dose response (AID 463074); format: functional, Homo sapiens;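 also: HMLE human mammary epithelial cells expressing control shRNA against eGFP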
Jurkat = test: blockers of NF-kB activation in T cells – Jurkat, luciferase reporter, luminescence, B- and T-cell, dose response (AID 489004); format: functional, cell-based; settings: Homo sapiens;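 also: NF-kB luciferase reporter Jurkat cells stimulated with PMA plus ionomycin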
[3] = HEK-293T viability loss, compound-treated – cell-based, uHTS hits, cytotoxicity control for B/T-cell NF-kB inhibitor project, dose response (AID 489019); format: functional;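 also: IC50 reflects cytotoxicity as loss of cell viability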
[4] = biological target: T1, Microphthalmia-associated transcription factor (Homo sapiens, UniProt O75030); test: reducers of TRPM1 reporter luminescence, concentration series – cell-based, SK-MEL-5, cherry-picked, set 3, MITF inhibitor project, dose response (AID 493073); format: functional;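 also: SK-MEL-5 melanoma cells with luciferase driven by the MITF target TRPM1 promoter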
T1 sequence (O75030 whole entry): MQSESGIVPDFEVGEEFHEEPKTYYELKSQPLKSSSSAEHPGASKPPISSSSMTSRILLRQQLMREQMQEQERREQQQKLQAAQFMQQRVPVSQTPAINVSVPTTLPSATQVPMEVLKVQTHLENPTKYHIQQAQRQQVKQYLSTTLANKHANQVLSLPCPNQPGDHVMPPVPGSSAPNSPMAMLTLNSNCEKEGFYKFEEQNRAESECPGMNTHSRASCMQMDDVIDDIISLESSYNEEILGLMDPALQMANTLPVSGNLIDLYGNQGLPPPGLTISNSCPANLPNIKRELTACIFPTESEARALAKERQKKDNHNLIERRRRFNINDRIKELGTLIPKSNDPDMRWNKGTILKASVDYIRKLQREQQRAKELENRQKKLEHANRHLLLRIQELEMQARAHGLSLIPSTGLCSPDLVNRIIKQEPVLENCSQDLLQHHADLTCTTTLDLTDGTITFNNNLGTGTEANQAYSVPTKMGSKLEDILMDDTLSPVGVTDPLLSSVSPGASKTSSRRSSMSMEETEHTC

[5] = HEK-293T viability loss after treatment – luminescence, T-cell screen hits, cytotoxicity control for TCR NF-kB inhibitor project, dose response (AID 489026); format: functional, cell-based;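 also: cells exposed to compound about 14 hours before the viability readout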
Phospholipase A2 = Phospholipase A2 (Homo sapiens, UniProt P04054); test: phospholipase A2 activity inhibition – biochemical, set 2, counter-screen for ATG4B inhibitor project, dose response (AID 588586); format: functional
Cysteine protease ATG4B = biological target: T2, Cysteine protease ATG4B (Homo sapiens, UniProt Q9Y4P1); test: autophagin-1 cysteine protease inhibition – biochemical, fluorescence, set 2, dose response (AID 588584); format: functional
T2 sequence (Q9Y4P1 whole entry): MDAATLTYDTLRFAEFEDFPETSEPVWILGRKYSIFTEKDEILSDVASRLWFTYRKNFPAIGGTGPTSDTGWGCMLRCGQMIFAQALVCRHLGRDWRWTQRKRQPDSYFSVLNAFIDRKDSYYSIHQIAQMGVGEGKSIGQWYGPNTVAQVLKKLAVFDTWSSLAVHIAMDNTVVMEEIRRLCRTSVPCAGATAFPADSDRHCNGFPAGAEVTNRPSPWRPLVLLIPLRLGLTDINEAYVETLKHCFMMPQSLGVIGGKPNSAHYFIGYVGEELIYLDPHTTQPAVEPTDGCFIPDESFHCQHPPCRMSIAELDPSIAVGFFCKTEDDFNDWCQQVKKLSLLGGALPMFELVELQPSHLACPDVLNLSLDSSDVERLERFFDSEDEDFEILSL

Caspase-3 = biological target: T3, Caspase-3 (Homo sapiens, UniProt P42574); test: inhibition of recombinant caspase-3 activity – biochemical, luminescence, set 2, selectivity assay for SENP protease inhibitor project, SAR follow-up (AID 588599); format: functional
T3 sequence (P42574 whole entry): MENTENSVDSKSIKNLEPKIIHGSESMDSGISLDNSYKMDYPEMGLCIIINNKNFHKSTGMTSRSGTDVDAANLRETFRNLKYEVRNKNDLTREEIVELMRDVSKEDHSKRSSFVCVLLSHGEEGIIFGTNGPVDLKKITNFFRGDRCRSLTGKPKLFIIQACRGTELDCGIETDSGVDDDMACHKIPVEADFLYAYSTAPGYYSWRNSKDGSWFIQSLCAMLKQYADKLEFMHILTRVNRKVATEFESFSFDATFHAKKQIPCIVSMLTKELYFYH

[6] = biological target: T4, Sentrin-specific protease 8 (Homo sapiens, UniProt Q96LD8); test: inhibition of sentrin protease 8 – biochemical, luminescence, set 2, SAR follow-up (AID 588601); format: functional
T4 sequence (Q96LD8 whole entry): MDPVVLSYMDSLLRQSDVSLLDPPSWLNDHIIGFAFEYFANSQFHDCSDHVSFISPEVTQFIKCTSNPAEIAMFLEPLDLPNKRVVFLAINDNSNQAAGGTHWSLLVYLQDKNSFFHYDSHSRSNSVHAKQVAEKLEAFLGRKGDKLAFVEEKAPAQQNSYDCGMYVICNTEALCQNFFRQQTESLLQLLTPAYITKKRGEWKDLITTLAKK

[7] = biological target: T5, Sentrin-specific protease 7 (Homo sapiens, UniProt Q9BQF6); test: inhibition of human SENP7 cleavage activity – biochemical, luminescence, set 2, SAR follow-up (AID 588600); format: functional
T5 sequence (Q9BQF6 whole entry): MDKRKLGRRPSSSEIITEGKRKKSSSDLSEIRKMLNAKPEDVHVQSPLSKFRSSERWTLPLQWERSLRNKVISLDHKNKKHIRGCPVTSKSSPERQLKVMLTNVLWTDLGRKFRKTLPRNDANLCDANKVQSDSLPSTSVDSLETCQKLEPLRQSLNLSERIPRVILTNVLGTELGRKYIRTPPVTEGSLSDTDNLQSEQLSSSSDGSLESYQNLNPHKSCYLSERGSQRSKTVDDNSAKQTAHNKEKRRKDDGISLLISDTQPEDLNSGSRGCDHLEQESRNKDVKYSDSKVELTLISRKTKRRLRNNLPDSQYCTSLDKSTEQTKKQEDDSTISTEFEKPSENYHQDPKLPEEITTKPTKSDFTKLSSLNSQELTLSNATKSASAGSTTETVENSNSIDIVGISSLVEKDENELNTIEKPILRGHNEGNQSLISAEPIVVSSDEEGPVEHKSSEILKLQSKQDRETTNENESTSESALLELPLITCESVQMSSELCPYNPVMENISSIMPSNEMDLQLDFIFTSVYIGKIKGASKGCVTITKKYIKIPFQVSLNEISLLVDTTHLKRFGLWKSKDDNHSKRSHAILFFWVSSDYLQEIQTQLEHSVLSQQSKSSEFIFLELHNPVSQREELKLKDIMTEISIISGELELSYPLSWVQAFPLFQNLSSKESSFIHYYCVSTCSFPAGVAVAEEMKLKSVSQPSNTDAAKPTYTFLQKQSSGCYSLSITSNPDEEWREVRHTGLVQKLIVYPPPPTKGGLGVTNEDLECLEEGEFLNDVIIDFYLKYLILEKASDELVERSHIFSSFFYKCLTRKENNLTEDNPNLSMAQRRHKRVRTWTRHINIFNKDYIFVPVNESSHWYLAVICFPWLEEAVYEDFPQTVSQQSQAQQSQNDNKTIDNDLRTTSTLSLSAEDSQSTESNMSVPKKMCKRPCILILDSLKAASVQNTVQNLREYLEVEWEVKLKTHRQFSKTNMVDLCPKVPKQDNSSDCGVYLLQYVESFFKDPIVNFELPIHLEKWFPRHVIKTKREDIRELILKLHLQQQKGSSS

[8] = biological target: T6, Sentrin-specific protease 6 (Homo sapiens, UniProt Q9GZR1); test: inhibition of human SENP6 catalytic domain – biochemical, luminescence, set 2, SAR follow-up (AID 588598); format: functional
T6 sequence (Q9GZR1 whole entry): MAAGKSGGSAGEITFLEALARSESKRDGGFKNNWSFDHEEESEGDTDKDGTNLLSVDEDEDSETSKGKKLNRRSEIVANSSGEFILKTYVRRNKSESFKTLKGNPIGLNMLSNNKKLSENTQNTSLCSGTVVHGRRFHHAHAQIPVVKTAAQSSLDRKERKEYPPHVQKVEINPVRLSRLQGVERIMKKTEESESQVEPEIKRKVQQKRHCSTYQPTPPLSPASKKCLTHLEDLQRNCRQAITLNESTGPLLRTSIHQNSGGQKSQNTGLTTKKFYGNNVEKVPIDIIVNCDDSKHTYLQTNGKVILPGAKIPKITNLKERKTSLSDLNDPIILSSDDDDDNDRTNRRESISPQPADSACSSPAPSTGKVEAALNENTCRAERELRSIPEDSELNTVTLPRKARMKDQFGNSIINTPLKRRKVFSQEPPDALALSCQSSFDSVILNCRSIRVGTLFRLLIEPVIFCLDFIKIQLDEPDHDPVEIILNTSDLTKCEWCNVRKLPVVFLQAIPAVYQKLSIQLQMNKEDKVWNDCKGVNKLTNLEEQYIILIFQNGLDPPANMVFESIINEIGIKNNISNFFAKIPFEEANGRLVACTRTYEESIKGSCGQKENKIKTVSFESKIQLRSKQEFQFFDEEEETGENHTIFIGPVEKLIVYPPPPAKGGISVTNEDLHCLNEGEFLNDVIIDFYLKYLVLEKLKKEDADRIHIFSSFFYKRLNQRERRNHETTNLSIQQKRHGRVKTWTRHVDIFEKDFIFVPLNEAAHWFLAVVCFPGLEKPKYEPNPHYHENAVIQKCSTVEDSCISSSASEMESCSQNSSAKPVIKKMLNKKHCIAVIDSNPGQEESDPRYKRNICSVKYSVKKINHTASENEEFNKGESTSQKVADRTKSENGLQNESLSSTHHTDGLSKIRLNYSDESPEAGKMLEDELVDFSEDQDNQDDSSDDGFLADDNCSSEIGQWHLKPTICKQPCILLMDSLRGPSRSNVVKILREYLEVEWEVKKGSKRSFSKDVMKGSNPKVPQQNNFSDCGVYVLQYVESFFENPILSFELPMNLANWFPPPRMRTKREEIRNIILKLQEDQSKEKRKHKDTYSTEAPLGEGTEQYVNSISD

[9] = biological target: Glucose-6-phosphate 1-dehydrogenase (Homo sapiens, UniProt P11413); test: inhibition of Homo sapiens G6PD, dose series – biochemical, fluorescence, selectivity assay for P. falciparum G6PD inhibitor project, dose response (AID 504792); format: functional
[10] = viability loss in HeLa cells – cytotoxicity control for MgcRacGAP inhibitor project, dose response (AID 624300); format: functional
[11] = biological target: T7, Rac GTPase-activating protein 1 (Homo sapiens, UniProt Q9H0H5); test: blockers of MgcRacGAP-driven Rac1 GTP hydrolysis – biochemical, ADP Hunter fluorescence, primary and confirmatory, confirmation (AID 624330); format: functional
T7 sequence (Q9H0H5 whole entry): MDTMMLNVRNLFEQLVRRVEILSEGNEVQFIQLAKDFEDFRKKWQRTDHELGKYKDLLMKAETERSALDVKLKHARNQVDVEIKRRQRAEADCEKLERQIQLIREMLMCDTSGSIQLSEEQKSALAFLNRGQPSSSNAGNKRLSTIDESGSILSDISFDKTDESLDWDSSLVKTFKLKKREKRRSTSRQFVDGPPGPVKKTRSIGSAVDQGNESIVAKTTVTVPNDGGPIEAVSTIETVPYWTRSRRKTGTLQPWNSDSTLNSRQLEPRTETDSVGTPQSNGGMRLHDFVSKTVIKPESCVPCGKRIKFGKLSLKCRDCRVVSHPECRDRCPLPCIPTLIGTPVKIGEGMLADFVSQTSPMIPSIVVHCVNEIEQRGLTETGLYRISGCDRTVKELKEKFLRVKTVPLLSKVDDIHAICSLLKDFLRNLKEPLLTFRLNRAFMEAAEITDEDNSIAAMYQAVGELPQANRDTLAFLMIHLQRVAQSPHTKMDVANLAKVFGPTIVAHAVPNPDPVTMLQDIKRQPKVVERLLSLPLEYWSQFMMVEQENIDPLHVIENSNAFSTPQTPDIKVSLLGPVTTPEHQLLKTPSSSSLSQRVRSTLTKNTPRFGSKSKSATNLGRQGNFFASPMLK

[12] = A Cell Based Secondary Assay To Explore Cytotoxicity of Compounds that Sensitize Mycobacterium Tuberculosis to Beta-Lactam Antibiotics.; format: functional
Escherichia coli = test: microbe, parasite or virus in culture
[13] = biological target: Dual specificity protein kinase CLK1 (Homo sapiens, UniProt P49759); test: inhibition of human CLK1 activity – biochemical, cherry-picked samples, selectivity assay for Dyrk1A inhibitor project, dose response (AID 588811)
Hexokinase-1 = Hexokinase-1 (Homo sapiens, UniProt P19367); test: SAR analysis of small molecule inhibitors of hexokinase domain containing I (HKDC1) in the hexokinase 1 selectivity assay. [Related pubchem assays (depositor defined):AID493160, AID493190]; format: functional
Hexokinase HKDC1 = Hexokinase HKDC1 (Homo sapiens, UniProt Q2TB90); test: SAR analysis of small molecule inhibitors of hexokinase domain containing I (HKDC1). [Related pubchem assays (depositor defined):AID493160, AID493190]; format: functional
Sequence of Hexokinase HKDC1 (Q2TB90 whole entry, the tested form may be a part): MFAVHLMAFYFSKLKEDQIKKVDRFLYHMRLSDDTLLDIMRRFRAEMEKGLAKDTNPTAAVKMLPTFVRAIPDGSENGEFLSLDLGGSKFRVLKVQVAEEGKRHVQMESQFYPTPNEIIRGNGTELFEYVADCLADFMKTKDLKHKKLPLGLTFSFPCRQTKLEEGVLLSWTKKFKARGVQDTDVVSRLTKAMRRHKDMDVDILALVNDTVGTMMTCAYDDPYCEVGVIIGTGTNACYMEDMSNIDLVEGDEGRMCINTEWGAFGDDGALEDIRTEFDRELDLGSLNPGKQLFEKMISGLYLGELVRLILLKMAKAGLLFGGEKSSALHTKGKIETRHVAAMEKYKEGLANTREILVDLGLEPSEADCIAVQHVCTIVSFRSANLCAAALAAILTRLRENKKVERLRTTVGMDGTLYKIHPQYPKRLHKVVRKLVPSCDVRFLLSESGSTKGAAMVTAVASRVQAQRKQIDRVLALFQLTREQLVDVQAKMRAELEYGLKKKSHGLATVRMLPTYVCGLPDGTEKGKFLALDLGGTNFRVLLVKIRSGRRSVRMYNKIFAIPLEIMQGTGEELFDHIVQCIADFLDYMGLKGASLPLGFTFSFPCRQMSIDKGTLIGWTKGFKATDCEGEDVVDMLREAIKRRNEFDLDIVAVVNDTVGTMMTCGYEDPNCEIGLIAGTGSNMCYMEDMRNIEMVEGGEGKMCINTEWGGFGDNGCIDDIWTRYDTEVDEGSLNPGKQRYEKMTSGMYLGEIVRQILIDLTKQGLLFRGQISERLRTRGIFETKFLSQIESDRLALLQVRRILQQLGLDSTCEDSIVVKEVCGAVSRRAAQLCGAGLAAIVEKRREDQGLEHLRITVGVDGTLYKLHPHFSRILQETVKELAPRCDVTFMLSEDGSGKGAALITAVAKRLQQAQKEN

Sequence of Dual specificity protein kinase CLK1 (P49759 whole entry, the tested form may be a part): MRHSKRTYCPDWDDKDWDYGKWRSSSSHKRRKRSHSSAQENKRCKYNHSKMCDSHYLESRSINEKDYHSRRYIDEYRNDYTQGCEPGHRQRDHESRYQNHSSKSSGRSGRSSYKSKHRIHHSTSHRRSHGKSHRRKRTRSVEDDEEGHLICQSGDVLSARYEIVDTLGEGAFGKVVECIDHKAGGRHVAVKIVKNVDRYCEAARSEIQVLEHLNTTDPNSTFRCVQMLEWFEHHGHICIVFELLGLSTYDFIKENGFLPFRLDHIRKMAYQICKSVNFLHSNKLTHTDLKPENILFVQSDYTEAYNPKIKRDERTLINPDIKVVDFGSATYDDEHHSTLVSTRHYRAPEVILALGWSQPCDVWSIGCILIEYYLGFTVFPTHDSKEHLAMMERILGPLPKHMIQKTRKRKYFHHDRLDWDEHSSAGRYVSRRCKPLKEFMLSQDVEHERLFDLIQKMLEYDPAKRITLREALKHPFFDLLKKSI
Sequence of Phospholipase A2 (P04054 whole entry): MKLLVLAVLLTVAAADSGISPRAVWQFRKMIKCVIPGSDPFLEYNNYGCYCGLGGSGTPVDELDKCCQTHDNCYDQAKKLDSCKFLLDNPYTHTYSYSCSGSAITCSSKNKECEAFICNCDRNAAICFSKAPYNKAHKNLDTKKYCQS
Sequence of Glucose-6-phosphate 1-dehydrogenase (P11413 whole entry): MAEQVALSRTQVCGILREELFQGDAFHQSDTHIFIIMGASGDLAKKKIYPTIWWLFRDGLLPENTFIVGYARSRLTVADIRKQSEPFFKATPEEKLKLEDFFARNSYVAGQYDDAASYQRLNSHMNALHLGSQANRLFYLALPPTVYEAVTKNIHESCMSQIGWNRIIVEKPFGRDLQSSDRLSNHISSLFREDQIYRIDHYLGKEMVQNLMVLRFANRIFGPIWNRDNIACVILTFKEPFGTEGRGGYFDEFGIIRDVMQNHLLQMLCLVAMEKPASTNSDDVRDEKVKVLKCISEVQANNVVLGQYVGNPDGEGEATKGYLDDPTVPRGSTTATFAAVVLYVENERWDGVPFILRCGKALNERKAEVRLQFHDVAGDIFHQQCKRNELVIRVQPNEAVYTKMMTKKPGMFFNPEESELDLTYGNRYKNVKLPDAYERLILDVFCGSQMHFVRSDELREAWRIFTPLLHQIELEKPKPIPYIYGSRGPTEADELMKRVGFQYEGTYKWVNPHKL
Sequence of Hexokinase-1 (P19367 whole entry, the tested form may be a part): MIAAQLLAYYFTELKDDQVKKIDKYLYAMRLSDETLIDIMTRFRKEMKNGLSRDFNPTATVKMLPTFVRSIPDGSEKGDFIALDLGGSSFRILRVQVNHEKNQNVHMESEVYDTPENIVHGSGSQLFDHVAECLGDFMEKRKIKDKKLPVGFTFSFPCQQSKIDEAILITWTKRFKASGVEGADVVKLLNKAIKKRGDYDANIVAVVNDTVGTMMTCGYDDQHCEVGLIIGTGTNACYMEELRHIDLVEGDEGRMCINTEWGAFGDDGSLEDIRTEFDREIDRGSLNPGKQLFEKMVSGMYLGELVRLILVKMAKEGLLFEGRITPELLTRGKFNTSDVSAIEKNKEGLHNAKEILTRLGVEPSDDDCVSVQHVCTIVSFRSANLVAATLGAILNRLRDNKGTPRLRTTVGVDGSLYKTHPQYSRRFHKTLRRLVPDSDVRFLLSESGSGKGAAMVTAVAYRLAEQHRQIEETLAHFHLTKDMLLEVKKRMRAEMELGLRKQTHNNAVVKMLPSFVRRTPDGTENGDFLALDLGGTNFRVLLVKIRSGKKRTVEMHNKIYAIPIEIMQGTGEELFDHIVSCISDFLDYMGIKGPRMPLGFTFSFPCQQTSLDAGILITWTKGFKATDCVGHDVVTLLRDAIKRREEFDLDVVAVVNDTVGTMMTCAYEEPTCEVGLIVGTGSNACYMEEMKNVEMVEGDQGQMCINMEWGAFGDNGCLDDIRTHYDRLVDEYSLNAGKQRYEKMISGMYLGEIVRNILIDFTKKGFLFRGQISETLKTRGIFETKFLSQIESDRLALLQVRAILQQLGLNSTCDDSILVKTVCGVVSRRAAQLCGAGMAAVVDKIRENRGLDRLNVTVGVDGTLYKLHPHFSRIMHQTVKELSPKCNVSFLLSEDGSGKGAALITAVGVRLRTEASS

O=C(Nc1ccccc1N1CCCC1)c1cccc(-c2cc3ccccc3oc2=O)c1
AC50 [1]: 1.88 µM (active)
AC50 [2]: 41.2 µM (active)

O=C(COC(=O)c1cccnc1O)Nc1ccc(N2CCCCC2)cc1
IC50 (Jurkat): 0.19 µM (active)
IC50 [3]: > 80 µM (inactive)
AC50 [4]: 1.03 µM (active)

CC1=Nc2ccccc2/C1=C\c1sc(Nc2ccc(C)cc2)nc1O
AC50 [1]: 0.546 µM (active)
IC50 [5]: 45.8 µM (inactive)
IC50 (Phospholipase A2): 22.3 µM (inactive)
IC50 (Cysteine protease ATG4B): 30.6 µM (inactive)

COc1ccc(N2CC(C(=O)N/N=C/c3c[nH]c4ccccc34)CC2=O)cc1 (configuration not stated)
IC50 (Caspase-3): > 99 µM (inactive)
IC50 [6]: > 99 µM (inactive)
IC50 [7]: > 99 µM (inactive)
IC50 [8]: > 99 µM (inactive)

O=C1C(=Cc2cccc(O)c2O)SC(=S)N1CCCN1CCOCC1
IC50 [9]: > 80 µM (inactive)
CC50 [10]: 100 µM (active)
IC50 [11]: 45.5 µM (active)

Cc1nc(Nc2ccc(Cl)cc2Cl)sc1C(=O)Nc1ccccc1
CC50 [12]: > 40 µM (active)
AC50 [1]: 7.83 µM (active)
AC50 (Escherichia coli): 56.1 µM (active)

Cc1ccc(CNc2ncnc3ccc(-c4ccoc4C)cc23)o1
AC50 [13]: 0.695 µM (active)

O=c1c2ccccc2nc(/C=C/c2ccncc2)n1Cc1ccccc1
IC50 (Hexokinase-1): > 80 µM (inactive)
IC50 (Hexokinase HKDC1): > 80 µM (inactive)
